Measured values reported in patent US5292733A, “Cephalosporin compounds” (Lucky Limited, priority 1991, dated 1994).
In brackets after ≈: the same amount, converted by molar mass.

Tests used:
Experiment in all cases: Antibacterial activity MIC, two-fold agar dilution
Format in all cases: cell-based
[1] = test system: Escherichia coli ATCC 25922; settings: 37° C., 20 hours; for MIC: ATCC25922, Muller-Hinton agar
Procedure, shortened: (§1)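 Agar dilution assay in Muller-Hinton medium with doubling compound concentrations. Strains were inoculated as 2 μl of a 10^7 CFU/ml suspension and grown for 20 hours at 37° C.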

[2] = test system: Staphylococcus aureus ATCC 10537; settings: Staphylococcus aureus ATCC 10537, Muller-Hinton agar, 37° C., 20 hours; for MIC: ATCC10537, read-out: Antibacterial Activity MIC
Procedure, shortened: as §1

[3] = test system: Pseudomonas aeruginosa ATCC 10145; settings: Pseudomonas aeruginosa ATCC 10145, Muller-Hinton agar, 37° C., 20 hours; for MIC: ATCC10145, read-out: Antibacterial Activity MIC
Procedure, shortened: as §1

[4] = test system: Bacillus megaterium ATCC 9885; settings: Bacillus megaterium ATCC 9885, Muller-Hinton agar, 37° C., 20 hours; for MIC: Priestia megaterium, ATCC9885, read-out: Antibacterial Activity MIC
Procedure, shortened: as §1

[5] = test system: Providencia rettgeri ATCC 9250; settings: 37° C., 20 hours; for MIC: ATCC9250, Muller-Hinton agar
Procedure, shortened: as §1

[6] = test system: Citrobacter freundii ATCC 8090; settings: Citrobacter freundii ATCC 8090, Muller-Hinton agar, 37° C., 20 hours; for MIC: ATCC8090, read-out: Antibacterial Activity MIC
Procedure, shortened: as §1

[7] = test system: Bacillus cereus ATCC 11778; settings: Bacillus cereus ATCC 11778, Muller-Hinton agar, 37° C., 20 hours; for MIC: ATCC11778, read-out: Antibacterial Activity MIC
Procedure, shortened: as §1

[8] = test system: Micrococcus luteus ATCC 9341; settings: Micrococcus luteus ATCC 9341, Muller-Hinton agar, 37° C., 20 hours; for MIC: ATCC9341, read-out: Antibacterial Activity MIC
Procedure, shortened: as §1

[9] = test system: Streptococcus faecalis ATCC 29212; settings: Streptococcus faecalis ATCC 29212, Muller-Hinton agar, 37° C., 20 hours; for MIC: Enterococcus faecalis, ATCC29212, read-out: Antibacterial Activity MIC
Procedure, shortened: as §1

[10] = test system: Staphylococcus epidermidis ATCC 12228; settings: Staphylococcus epidermidis ATCC 12228, Muller-Hinton agar, 37° C., 20 hours; for MIC: ATCC12228, read-out: Antibacterial Activity MIC
Procedure, shortened: as §1

[11] = test system: Pseudomonas aeruginosa ATCC 25619; settings: Pseudomonas aeruginosa ATCC 25619, Muller-Hinton agar, 37° C., 20 hours; for MIC: ATCC25619, read-out: Antibacterial Activity MIC
Procedure, shortened: as §1

[12] = test system: Shigella sonnei ATCC 11060; settings: 37° C., 20 hours; for MIC: ATCC11060, Muller-Hinton agar
Procedure, shortened: as §1

[13] = test system: Acinetobacter calcoaceticus ATCC 15473; settings: Acinetobacter calcoaceticus ATCC 15473, Muller-Hinton agar, 37° C., 20 hours; for MIC: ATCC15473, read-out: Antibacterial Activity MIC
Procedure, shortened: as §1

[14] = test system: Staphylococcus aureus ATCC 6538p; settings: Staphylococcus aureus ATCC 6538p, Muller-Hinton agar, 37° C., 20 hours; for MIC: ATCC6538P, read-out: Antibacterial Activity MIC
Procedure, shortened: as §1

[15] = test system: Enterobacter cloacae ATCC 27508; settings: Enterobacter cloacae ATCC 27508, Muller-Hinton agar, 37° C., 20 hours; for MIC: ATCC27508, read-out: Antibacterial Activity MIC
Procedure, shortened: as §1

[16] = test system: Serratia marcescens ATCC 27117; settings: Serratia marcescens ATCC 27117, Muller-Hinton agar, 37° C., 20 hours; for MIC: ATCC27117, read-out: Antibacterial Activity MIC
Procedure, shortened: as §1

[17] = test system: Pseudomonas aeruginosa ATCC 27853; settings: Pseudomonas aeruginosa ATCC 27853, Muller-Hinton agar, 37° C., 20 hours; for MIC: ATCC27853, read-out: Antibacterial Activity MIC
Procedure, shortened: as §1

[18] = test system: Escherichia coli ATCC 10536; settings: 37° C., 20 hours; for MIC: ATCC10536, Muller-Hinton agar
Procedure, shortened: as §1

[19] = test system: Klebsiella pneumoniae ATCC 10031; settings: Klebsiella pneumoniae ATCC 10031, Muller-Hinton agar, 37° C., 20 hours; for MIC: ATCC10031, read-out: Antibacterial Activity MIC
Procedure, shortened: as §1

[20] = test system: Salmonella typhimurium ATCC 14028; settings: Salmonella typhimurium ATCC 14028, Muller-Hinton agar, 37° C., 20 hours; for MIC: Salmonella enterica, read-out: Antibacterial Activity MIC
Procedure, shortened: as §1

[21] = test system: Proteus mirabilis ATCC 25933; settings: Proteus mirabilis ATCC 25933, Muller-Hinton agar, 37° C., 20 hours; for MIC: ATCC25933, read-out: Antibacterial Activity MIC
Procedure, shortened: as §1

[22] = test system: Shigella flexneri ATCC 11836; settings: 37° C., 20 hours; for MIC: ATCC11836, Muller-Hinton agar
Procedure, shortened: as §1

[23] = test system: Morganella morganii ATCC 8076h; settings: Muller-Hinton agar, 37° C., 20 hours; for MIC: ATCC8076H
Procedure, shortened: as §1

[24] = test system: Proteus vulgaris ATCC 6059; settings: Proteus vulgaris ATCC 6059, Muller-Hinton agar, 37° C., 20 hours; for MIC: ATCC6059, read-out: Antibacterial Activity MIC
Procedure, shortened: as §1

[25] = test system: Enterobacter aerogenes ATCC 29751; settings: Enterobacter aerogenes ATCC 29751, Muller-Hinton agar, 37° C., 20 hours; for MIC: Klebsiella aerogenes, ATCC29751, read-out: Antibacterial Activity MIC
Procedure, shortened: as §1

Compound: CC[n+]1c(SCC2=C(C(=O)[O-])N3C(=O)[C@@H](NC(=O)/C(=N\OC(C)C(=O)O)c4csc(N)n4)[C@H]3SC2)cc(N)nc1N (stereo partly drawn) [Compound I-4, (6R,7R)-7-[(Z)-2-(2-aminothiazol-4-yl)-2-(R,S-carboxyeth-1-oxyimino)acetamido]-3-(2,6-diamino-3-ethylpyrimidinium-4-yl)thiomethyl-3-cephem-4-carboxylate]
- MIC [1]: 0.13 µg/mL (≈ 0.208 µM)
- MIC [2]: 4 µg/mL (≈ 6.41 µM)
- MIC [3]: 2 µg/mL (≈ 3.21 µM)
- MIC [4]: 0.25 µg/mL (≈ 0.401 µM)
- MIC [5]: ≤ 0.008 µg/mL
- MIC [6]: 0.13 µg/mL (≈ 0.208 µM)
- MIC [7]: 64 µg/mL (≈ 103 µM)
- MIC [8]: 0.5 µg/mL (≈ 0.802 µM)
- MIC [9]: > 128 µg/mL
- MIC [10]: 1 µg/mL (≈ 1.6 µM)
- MIC [11]: 1 µg/mL (≈ 1.6 µM)
- MIC [12]: 0.25 µg/mL (≈ 0.401 µM)
- MIC [13]: 4 µg/mL (≈ 6.41 µM)
- MIC [14]: 8 µg/mL (≈ 12.8 µM)
- MIC [15]: 0.016 µg/mL (≈ 0.0257 µM)
- MIC [16]: 0.13 µg/mL (≈ 0.208 µM)
- MIC [17]: 2 µg/mL (≈ 3.21 µM)
- MIC [18]: 0.13 µg/mL (≈ 0.208 µM)
- MIC [19]: 0.031 µg/mL (≈ 0.0497 µM)
- MIC [20]: 0.5 µg/mL (≈ 0.802 µM)
- MIC [21]: 0.31 µg/mL (≈ 0.497 µM)
- MIC [22]: 0.031 µg/mL (≈ 0.0497 µM)
- MIC [23]: ≤ 0.008 µg/mL
- MIC [24]: 0.063 µg/mL (≈ 0.101 µM)
- MIC [25]: 1 µg/mL (≈ 1.6 µM)

Compound: CO/N=C(\C(=O)N[C@@H]1C(=O)N2C(C(=O)O)=C(COC(C)=O)CS[C@H]12)c1csc(N)n1 [Cefotaxime, reference compound]
- MIC [1]: 0.031 µg/mL (≈ 0.0681 µM)
- MIC [2]: 1 µg/mL (≈ 2.2 µM)
- MIC [3]: 16 µg/mL (≈ 35.1 µM)
- MIC [4]: 0.063 µg/mL (≈ 0.138 µM)
- MIC [5]: ≤ 0.008 µg/mL
- MIC [6]: 0.063 µg/mL (≈ 0.138 µM)
- MIC [7]: 64 µg/mL (≈ 141 µM)
- MIC [8]: 0.031 µg/mL (≈ 0.0681 µM)
- MIC [9]: > 128 µg/mL
- MIC [10]: 1 µg/mL (≈ 2.2 µM)
- MIC [11]: 1 µg/mL (≈ 2.2 µM)
- MIC [12]: 0.063 µg/mL (≈ 0.138 µM)
- MIC [13]: 8 µg/mL (≈ 17.6 µM)
- MIC [14]: 4 µg/mL (≈ 8.78 µM)
- MIC [15]: ≤ 0.008 µg/mL
- MIC [16]: 0.13 µg/mL (≈ 0.285 µM)
- MIC [17]: 8 µg/mL (≈ 17.6 µM)
- MIC [18]: 0.031 µg/mL (≈ 0.0681 µM)
- MIC [19]: ≤ 0.008 µg/mL
- MIC [20]: 0.13 µg/mL (≈ 0.285 µM)
- MIC [21]: 0.031 µg/mL (≈ 0.0681 µM)
- MIC [22]: 0.016 µg/mL (≈ 0.0351 µM)
- MIC [23]: ≤ 0.008 µg/mL
- MIC [24]: 0.031 µg/mL (≈ 0.0681 µM)
- MIC [25]: 2 µg/mL (≈ 4.39 µM)

Compound: (6R,7R)-7-[(Z)-2-(5-aminothiazol-4-yl)-2-(2-propyn-1-oxyimino)acetamido]-3-(2,6-diamino-1-methylpyrimidinium-4-yl)thiomethyl-3-cephem-4-carboxylate [Compound I-16]
- Antibacterial Activity MIC ([1]; Muller-Hinton agar): 0.5 µg/mL
- Antibacterial Activity MIC [2]: 0.5 µg/mL
- Antibacterial Activity MIC [3]: 8 µg/mL
- Antibacterial Activity MIC [4]: 0.25 µg/mL
- Antibacterial Activity MIC ([5]; Muller-Hinton agar): <= 0.008 μg/ml
- Antibacterial Activity MIC [6]: 0.25 µg/mL
- Antibacterial Activity MIC [7]: 64 µg/mL
- Antibacterial Activity MIC [8]: 0.031 µg/mL
- Antibacterial Activity MIC [9]: 32 µg/mL
- Antibacterial Activity MIC [10]: 0.25 µg/mL
- Antibacterial Activity MIC [11]: 2 µg/mL
- Antibacterial Activity MIC ([12]; Muller-Hinton agar): 0.5 µg/mL
- Antibacterial Activity MIC [13]: 8 µg/mL
- Antibacterial Activity MIC [14]: 0.5 µg/mL
- Antibacterial Activity MIC [15]: 0.063 µg/mL
- Antibacterial Activity MIC [16]: 2 µg/mL
- Antibacterial Activity MIC [17]: 4 µg/mL
- Antibacterial Activity MIC ([18]; Muller-Hinton agar): 0.5 µg/mL
- Antibacterial Activity MIC [19]: 0.016 µg/mL
- Antibacterial Activity MIC [20]: 1 µg/mL
- Antibacterial Activity MIC [21]: 1 µg/mL
- Antibacterial Activity MIC ([22]; Muller-Hinton agar): 0.25 µg/mL
- Antibacterial Activity MIC [23]: 0.016 µg/mL
- Antibacterial Activity MIC [24]: 1 µg/mL
- Antibacterial Activity MIC [25]: 1 µg/mL
